*1 amine or outer side, *2 acyl side, *3 side chain or, on linkers, in order; H or OH if unused. Where a SMILES comes first, the peptide text is derived from it. Bridges are numbered along the chain shown (N, C = ends). X1 = O=C(CCC[*:2])[*:1]
What was measured:
Format in all cases: toxicity, cell-based
U2OS = assay: Incucyte cell viability with U2OS; details: human, 10 µM, compound concentration 10 uM
Fibroblast = assay: Incucyte cell viability with human fibroblast; details: 10 µM, compound concentration 10 uM
HEK-293T = assay: Incucyte cell viability with HEK293T; details: human, 10 µM, compound concentration 10 uM
[1] = 0 h, replicate number 1, timepoint 0 hours
[2] = 6 h, replicate number 1, timepoint 6 hours
[3] = 12 h, replicate number 1, timepoint 12 hours
[4] = 18 h, replicate number 1, timepoint 18 hours
[5] = 18 h, replicate number 2, timepoint 18 hours
[6] = 24 h, replicate number 1, timepoint 24 hours
[7] = 24 h, replicate number 2, timepoint 24 hours
[8] = 0 h, replicate number 2, timepoint 0 hours
[9] = 12 h, replicate number 2, timepoint 12 hours
[10] = 6 h, replicate number 2, timepoint 6 hours
Also: unitless GR value; below 1 slowed growth and below 0 cell loss.

SMILES | Growth Rate (U2OS; [1]) | Growth Rate (U2OS; [3]) | Growth Rate (U2OS; [4]) | Growth Rate (U2OS; [5]) | Growth Rate (U2OS; [6]) | Growth Rate (U2OS; [7]) | Growth Rate (Fibroblast; [8]) | Growth Rate (Fibroblast; [3]) | Growth Rate (Fibroblast; [9]) | Growth Rate (Fibroblast; [4]) | Growth Rate (Fibroblast; [6]) | Growth Rate (HEK-293T; [8]) | Growth Rate (HEK-293T; [2]) | Growth Rate (HEK-293T; [10]) | Growth Rate (HEK-293T; [3]) | Growth Rate (HEK-293T; [9]) | Growth Rate (HEK-293T; [4]) | Growth Rate (HEK-293T; [5]) | Growth Rate (HEK-293T; [6]) | Growth Rate (U2OS; [8]) | other results
O=C(Nc1cc(-c2cn[nH]c2)ccc1N1CCOCC1)c1ccc(-c2ccc3ncccc3c2)o1 | 0.53 | 0.6 | 0.57 | 0.39 | 0.7 | 0.26 | -0.67 | 0.82 | 0.89 | 0.43 | 0.3 | 0.28 | -0.01 | 0.26 | -0.14 | 0.02 | 0 | 0.07 | 0.15 | – | Growth Rate (U2OS; [2]): 0.9; Growth Rate (Fibroblast; [1]): 0.62; Growth Rate (Fibroblast; [5]): 0.89; Growth Rate (Fibroblast; [7]): 0.83; Growth Rate (HEK-293T; [7]): 0.04
CC1(C)[C@H]2C[C@H](C/C=C\CCCC(=O)O)[C@@H](NC(=O)c3csc4ccc(O)cc34)[C@@H]1C2 | – | 0.14 | 0.37 | 0.81 | 0.66 | 0.86 | – | 0.51 | 0.75 | 0.69 | – | 0.67 | 0.73 | – | – | – | 0.94 | – | 0.85 | -0.79 | Growth Rate (U2OS; [2]): 0.23; Growth Rate (U2OS; [10]): 0.91; Growth Rate (Fibroblast; [2]): 0.09
COc1cc2nc(N3CCN(C(=O)COc4c(OC)cccc4C(C)C)CC3)nc(N)c2cc1OC.Cl.Cl | – | 0.56 | – | – | – | – | 0.71 | -0.84 | -0.41 | -0.75 | -0.65 | 0.59 | -0.28 | 0.9 | -0.06 | 0.66 | 0.21 | 0.61 | 0.39 | -1 | Growth Rate (Fibroblast; [2]): -0.72; Growth Rate (Fibroblast; [10]): -0.55; Growth Rate (Fibroblast; [5]): -0.48; Growth Rate (Fibroblast; [7]): -0.39; Growth Rate (HEK-293T; [7]): 0.84
Cc1cc(NC(=O)NCCN2CCC(O)(Cc3ccccc3)CC2)c2ccccc2n1 [PALOSURAN] | 0.34 | 0.33 | 0.73 | 0.98 | 0.87 | – | 0.27 | 0.72 | – | 0.32 | 0.22 | -1 | 0.95 | – | 0.83 | – | – | – | – | 0.13 | Growth Rate (U2OS; [2]): 0.57; Growth Rate (U2OS; [10]): 0.73; Growth Rate (Fibroblast; [2]): -0.3; Growth Rate (HEK-293T; [1]): 0.55
CC(C)c1c(NC(=O)Nc2ccc(Cl)cc2)c(=O)n(-c2ccccc2)n1C | -0.9 | – | – | – | – | – | 0.39 | 0.35 | 0.54 | 0.76 | 0.69 | 0.92 | – | 0.74 | 0.65 | 0.96 | 0.55 | – | 0.53 | -0.97 | Growth Rate (Fibroblast; [1]): 0.29; Growth Rate (Fibroblast; [2]): 0.31; Growth Rate (Fibroblast; [5]): 0.54; Growth Rate (Fibroblast; [7]): 0.44; Growth Rate (HEK-293T; [7]): 0.96
CC(=O)c1ccc2c(c1)[C@@H]1C=CC[C@@H]1[C@H](c1cc3c(cc1Br)OCO3)N2 | 0.33 | 0.01 | 0.03 | -0.33 | -0.17 | -0.31 | – | -0.78 | -0.47 | -0.76 | -0.54 | – | -0.31 | -0.36 | 0.01 | -0.05 | -0.14 | -0.06 | -0.12 | – | Growth Rate (U2OS; [10]): 0; Growth Rate (U2OS; [9]): -0.23; Growth Rate (Fibroblast; [2]): -0.85; Growth Rate (Fibroblast; [10]): -0.8; Growth Rate (Fibroblast; [5]): -0.23; Growth Rate (Fibroblast; [7]): -0.18; Growth Rate (HEK-293T; [7]): -0.02
C[C@H](NC(=O)c1c(C(F)F)nn(C)c1Oc1cccc(C(F)(F)F)c1)c1ccc(C(=O)O)cc1 [PALUPIPRANT] | -0.16 | – | 0.93 | – | – | – | 0.08 | – | – | 0.96 | – | – | – | – | – | – | – | – | – | -1 | Growth Rate (Fibroblast; [1]): 0.19
CCCOc1ccc2[nH]cc(C3=CCNCC3)c2n1.Cl | – | 0.67 | 0.82 | 0.95 | 0.92 | 0.93 | – | – | – | – | – | – | – | 0.51 | – | 0.75 | – | 0.95 | – | – | Growth Rate (U2OS; [2]): 0.81; Growth Rate (U2OS; [9]): 0.93
CCCn1c(=O)c2[nH]c(-c3ccc(OCC(=O)Nc4ccc(C#N)cc4)cc3)nc2n(CCC)c1=O | 0.37 | – | – | – | – | – | – | – | – | – | – | 0.64 | 0.24 | – | 0.85 | – | 0.94 | – | – | -1 | –
CC[C@H](C)[C@@H]1NC(=O)[C@H](Cc2ccc(OC)cc2)NC(=O)CCCSC[C@@H](C(=O)N2CCC[C@H]2C(=O)N[C@@H](CC(C)C)C(=O)NCC(N)=O)NC(=O)[C@H](CC(N)=O)NC(=O)[C@H](CCC(N)=O)NC1=O [CARBETOCIN] (Y(Me)IQNCPLG-NH2; linker N-5 via X1) | – | – | – | – | – | – | 0.98 | – | – | 0.85 | 0.54 | -0.11 | 1 | – | 0.63 | – | 0.76 | 1 | 0.89 | – | Growth Rate (Fibroblast; [1]): 0.35; Growth Rate (HEK-293T; [1]): 0.31; Growth Rate (HEK-293T; [7]): 0.92
CN1CCN2c3ccccc3Cc3ccccc3C2C1.Cl (configuration not stated) [MIANSERIN HYDROCHLORIDE] | – | – | 0.96 | 0.94 | – | 0.97 | – | – | – | – | – | 0.8 | – | – | – | – | – | – | – | -1 | Growth Rate (U2OS; [10]): 0.85; Growth Rate (U2OS; [9]): 0.97
CN1CCN2c3ncccc3Cc3ccccc3C2C1 (configuration not stated) [MIRTAZAPINE] | – | 0.81 | – | 0.79 | 0.96 | 0.85 | – | – | – | – | – | – | – | 0.53 | – | – | – | – | – | -0.76 | Growth Rate (U2OS; [9]): 0.97

Reference: ChEMBL document CHEMBL5058564, “EUbOPEN Chemogenomics Library 2 (Incucyte)” (2022)
